How the values were obtained:
[1] = test system: E. faecium LMGT 2763; assay: Relative MIC, inhibitory spectrum; type: cell-based, Enterococcus faecium; settings: relative to L. lactis IL 1403 = 1
[2] = test system: L. innocua LMGT 2785; assay: Relative MIC, inhibitory spectrum; type: cell-based, Listeria innocua; settings: relative to L. lactis IL 1403 = 1
[3] = test system: L. ivanovii LMGT 2813; assay: Relative MIC, inhibitory spectrum; type: cell-based, Listeria ivanovii; settings: relative to L. lactis IL 1403 = 1
[4] = test system: Clostridium bifermentans LMGT 2519; assay: Relative MIC, inhibitory spectrum; type: cell-based; settings: relative to L. lactis IL 1403 = 1
[5] = test system: C. tyrobutyricum LMGT 2524; assay: Relative MIC, inhibitory spectrum; type: cell-based, Clostridium tyrobutyricum; settings: relative to L. lactis IL 1403 = 1
[6] = test system: L. plantarum LMGT 2003; assay: Relative MIC, inhibitory spectrum; type: cell-based, Lactobacillus plantarum; settings: relative to L. lactis IL 1403 = 1
[7] = test system: Bacillus cereus LMGT 2805; assay: Relative MIC, inhibitory spectrum; type: cell-based; settings: relative to L. lactis IL 1403 = 1
[8] = test system: Listeria innocua LMGT 2710; assay: Relative MIC, inhibitory spectrum; type: cell-based; settings: relative to L. lactis IL 1403 = 1
[9] = test system: E. faecium LMGT 2876; assay: Relative MIC, inhibitory spectrum; type: cell-based, Enterococcus faecium; settings: relative to L. lactis IL 1403 = 1
[10] = test system: L. curvatus LMGT 2355; assay: Relative MIC, inhibitory spectrum; type: cell-based, Lactobacillus curvatus; settings: relative to L. lactis IL 1403 = 1
[11] = test system: Staph. Aureus; assay: Antimicrobial activity against problematic bacteria; type: cell-based, Staphylococcus aureus
Experimental: (§1) To screen for bacteriocin producers with broad inhibition spectra (BIS), Lactococcus lactis, Lactobacillus sakei, Lactobacillus plantarum, Listeria innocua, and Staphylococcus aureus from the food and dairy environment were used as indicators in the first round of screening. The antimicrobial screening was performed using the agar diffusion bioassay as previously described (Holo et al., 1991, J. Bacteriol., 173, p 3879-3887). Briefly, indicator cells from overnight cultures were diluted 100-fold in 5 mL of BHI soft agar and plated out as a lawn on BHI agar plates. Potential bacteriocin producers at volumes of 3 μL were spotted on the indicator lawn and then incubated at appropriate temperatures for 24 h for cell growth and cell inhibition. Inhibition was detected as clear zones around the spotted cells.
(§2) As the antimicrobial activity of garvicin KS is relatively broad, we explored further its potential to kill a larger panel of important pathogens. The list contained 147 problematic or potentially problematic bacteria of species belonging to Listeria, Staphylococcus, Streptococcus and Enterococcus, isolated from food and clinical sources. In this assay, we compared the antimicrobial activity of garvicin KS with that of garvicin ML and nisin, the last one being known as a broad inhibition-spectrum bacteriocin (AIKhatib et al., 2014, PLOS One 9:e102246 doi:10.1371/joumal.pone.0102246). […]

[12] = test system: L. plantarum LMGT 2358; assay: Relative MIC, inhibitory spectrum; type: cell-based, Lactobacillus plantarum; settings: relative to L. lactis IL 1403 = 1
[13] = test system: S. pneumonia; assay: Antimicrobial activity against problematic bacteria; type: cell-based, Streptococcus pneumonia
Experimental: as §1, §2

[14] = test system: C. tyrobutyricum LMGT 2511; assay: Relative MIC, inhibitory spectrum; type: cell-based, Clostridium tyrobutyricum; settings: relative to L. lactis IL 1403 = 1
[15] = test system: L. curvatus LMGT 2715; assay: Relative MIC, inhibitory spectrum; type: cell-based, Lactobacillus curvatus; settings: relative to L. lactis IL 1403 = 1
[16] = test system: E. faecium LMGT 2772; assay: Relative MIC, inhibitory spectrum; type: cell-based, Enterococcus faecium; settings: relative to L. lactis IL 1403 = 1
[17] = test system: Strep. Thermophylus; assay: Antimicrobial activity against problematic bacteria; type: cell-based, Streptococcus thermophylus; settings: food sources
Experimental: as §1, §2

garvicin ML
Relative MIC value [1]: 32-64 | Relative MIC value [2]: 32 | Relative MIC value [3]: 32 | Relative MIC value [4]: 16-32 | Relative MIC value [5]: 32-64 | Relative MIC value [6]: 64 | Relative MIC value [7]: 64 | Relative MIC value [8]: 32 | Relative MIC value [9]: 64-128 | Relative MIC value [10]: 2-4 | number of sensitive strains / number of strains tested ([11]; clinical sources): 9/25 | number of sensitive strains / number of strains tested ([11]; food sources): 4/28 | Relative MIC value [12]: 512 | number of sensitive strains / number of strains tested ([13]; clinical sources): 1/1 | number of sensitive strains / number of strains tested ([13]; food sources): 1/1 | Relative MIC value [14]: 32 | Relative MIC value [15]: 32 | Relative MIC value [16]: 32 | number of sensitive strains / number of strains tested [17]: 8/8

Source: patent US10781236B2, “Bacteriocin composition and method” (priority 2015, dated 2020)
